Consider two compounds from US5393744A, “Glucosyl phosphotriesters of thymidine” (Institut Pasteur, priority 1988, dated 1995).

Data set [1] has as its system human T lymphocytes. The data set is described as follows: Cytotoxicity of the products for human T lymphocytes. The format is cell-based. The method, then: (§1) Each product was dissolved in DMSO at a concentration of 10^-3 M (stock solution), then in the culture medium immediately before use. The solution thus obtained was sterilized by filtration on a 0.22μ Millipore, then successive dilutions were made in the culture medium.
The cultures of human T lymphocytes are maintained in the medium RPMI 1640 containing 10% fetal calf serum (Seromeal), 1% of glummine (Gibco), 1% of antibiotics (PSN, Gibco), 10% of interleukin II (Biotest), 2 μg/ml of polybrene (Sigma) and a 1/2500 dilution of α-human semm-interferon. This medium is called complete medium.
The cytotoxicity of the products was studied on human T lymphocytes obtained from peripheral blood of a sero-negative donor. Prior to the treatment, these lymphocytes are stimulated by phytohemagglutinin p (pHAp) (Difco) for 3 days.
a) Study of the cytotoxicity of the products for the T cells.
10^6 lymphocytes stimulated by pHAp were treated for 10 days by increasing doses of the product (10^-5 M; 5×10^-6 M; 10^-6 M). The product was added at each cell passage carried out every 3 or 4 days. At each passage, the cells were counted after staining with trypan blue then resuspended at 10^6 cells per ml in the complete medium containing or not increasing doses of the product. This experiment was carried out in a plate with 24 wells (Munc).

The subject of data set [2] is recombinant retrovirus of murine origin (MoMLV). Description: Residual virus (clones of βgal+ cells) after infection of mouse 3T3 test cells with LacZ recombinant MoMLV retrovirus. The format is cell-based. The conditions noted are these: 3T3 cells; for residual virus (% not inhibited) at 10 µM: 10^-5 M; for residual virus (% not inhibited) at 1 µM: 10^-6 M. The method, then:
The virus used is a recombinant retrovirus of murine origin (MoMLV) in which a reporter gene (LacZ) has been introduced.
Fixed amounts of LacZ recombinant retroviruses are placed in the presence of mouse infectable test cells (3T3) with or without the product to be tested. To each recombinant retrovirus corresponds a clone of β gal^+ cells. The number of clones of βgal^+ cells is read 48 hours after the infection. The % of the residual virus (not inhibited by the product) is indicated in the following table (mean of several independent experiments): […]

Data set [3] deals with HIV-1 virus. The data set is described as follows: Effect of the products on the infectious potency of the HIV-1 virus in human T lymphocytes (reverse transcriptase activity). Particulars: treatment after viral absorption (FIG. 2). The class given is cell-based, HIV-1 virus (LAV strain). The procedure: as §1
The cultures of human T lymphocytes are maintained in the medium RPMI 1640 containing 10% fetal calf serum (Seromeal), 1% of glummine (Gibco), 1% of antibiotics (PSN, Gibco), 10% of interleukin II (Biotest), 2 μg/ml of polybrene (Sigma) and a 1/2500 dilution of α-human semm-interferon. This medium is called complete medium. […]
Human lymphocytes stimulated beforehand by means of pHAp were infected by the HIV-1 virus (reverse transcriptase activity: 5000 cmp/10^6 cells). […] The viral production was monitored at each passage (and this for 13 days) by measuring the reverse transcriptase activity present in 1 ml of culture supernatant. […]
The production of the HIV-1 virus by human T cells treated or not by each product was regularly monitored by measuring the reverse transcriptase activity present in 1 ml of culture supernatant. […] After 1 hour of incubation of 37° C., the acid-insoluble products are precipitated by 20% trichloroacetic acid, filtered on 0.45μ Millipore, then the β radioactivity contained in these reaction products is measured with the aid of a Kontron scintillation counter.

The mark [4] stands for this setting: NIH3T3, 48 hours after infection, mean of several experiments, read-out: % of the residual virus (not inhibited by the product).

For `CCCCCCCCCCCCCCCCOP(=O)(OC[C@H]1OC(O)[C@H](O)[C@@H](O)[C@@H]1O)OC[C@H]1O[C@@H](n2cc(C)c(=O)[nH]c2=O)C[C@@H]1N=[N+]=[N-]` (some centres unmarked) [compound 6651, 6-glucosyl hexadecyl 5'-(3'-azido) thymidinyl phosphate], the “effect on the growth of T cells” value in data set [1] (treatment of 10 days, at the doses used (FIG. 1)) is “without significant effect on the growth of T cells”. In addition, the residual virus (% not inhibited) at 100 µM in data set [2] (NIH3T3, 10^-4 M, 48 hours after infection, mean of several experiments, read-out: % of the residual virus (not inhibited by the product)) was 11%. In addition, in data set [2] (setting [4]), the residual virus (% not inhibited) at 10 µM was found to be 65% and the residual virus (% not inhibited) at 1 µM came out at 94%. For the same compound, in data set [3] (10^-5 M), the “inhibition of the multiplication of the virus” value is reported as “total inhibition of the multiplication of the virus”.

As for `Cc1cn([C@H]2CC[C@@H](COP(=O)(O)OC[C@H]3OC(O)[C@H](O)[C@@H](O)[C@@H]3O)O2)c(=O)[nH]c1=O` (some centres unmarked) [compound 6714, 6-glucosyl 5'-(3'-deoxy)-thymidinyl phosphate], in data set [1] (same doses, 3 days), the “effect on cell multiplication” value is “no effect is observed on cell multiplication”. In data set [2] (setting [4]), the residual virus (% not inhibited) at 10 µM is 4% and the residual virus (% not inhibited) at 1 µM amounted to 12%. Further, the residual virus (% not inhibited) at 0.1 µM in data set [2] (NIH3T3, 10^-7 M, 48 hours after infection, mean of several experiments, read-out: % of the residual virus (not inhibited by the product)) is 66%. In data set [2] (recombinant MoMLV), the “retroviral activity (in words)” value was “active by themselves”. The “inhibition of the multiplication of the virus” value in data set [3] (dose proportional) is given as “partial inhibition proportional to the dose of the product used”.
